Test results published in patent US6294527A, “Cephem compounds” (Zenyaku Kogyo Kabushiki Kaisha, priority 1996, dated 2001).
In brackets after ≈: the same amount, converted by molar mass. Structures can show the parent of a compound that is named as a salt. Where two headings read alike, the source gives them in different places.

Experiments:
[1] = tested on: Staphylococcus aureus (S. aureus FDA 209P); test: Agar plate dilution MIC, Staphylococcus aureus FDA 209P; assay type: cell-based; conditions: FDA209P, read-out: MIC S. aureus FDA 209P
Experimental: (§1) Antibacterial test was performed in substantial accordance with agar plate dilution method based on Standard method of The Japan Society of Chemotherapy to determine minimum inhibitory concentration (MIC) of the respective test compounds against Staphylococcus aureus (S. aureus FDA 209P) and vancomycin-resistant enterococci (E. faecalis NCTC-12201). Also determined was MIC80 on clinically separated strains (27 strains) of MRSA. The inoculated amount was 10^6 CFU/ml and flomoxef (FMOX) and vancomycin (VCM) were used as controls.

[2] = tested on: vancomycin-resistant enterococci (E. faecalis NCTC-12201); test: Agar plate dilution MIC, vancomycin-resistant enterococci E. faecalis NCTC-12201; assay type: cell-based; conditions: Enterococcus faecalis
Experimental: as §1

[3] = agar plate dilution, inoculum 10^6 CFU/ml
[4] = NCTC12201, agar plate dilution, inoculum 10^6 CFU/ml, vancomycin-resistant, read-out: MIC E. faecalis NCTC-12201

| Structure (SMILES) | MIC [1, 3] [µg/mL] | MIC [2, 4] [µg/mL] | MIC [1] [µg/mL] | MIC ([2]; NCTC12201, read-out: MIC E. faecalis NCTC-12201) [µg/mL] |
| --- | --- | --- | --- | --- |
| Nc1nc(/C(=N/O)C(=O)N[C@@H]2C(=O)N3C(C(=O)O)=C(C=CSc4cc(=O)c5ccc(F)cc5s4)CS[C@H]23)cs1 [compound 18, 7-[2-hydroxyimino-2-(2-aminothiazol-4-yl)acetamide]-3-[2-(7-fluoro-4-oxo-4H-1-benzothiopyran-2-yl)thiovinyl]-3-cephem-4-carboxylic acid] | 0.39 (≈ 0.644 µM) | 6.25 (≈ 10.3 µM) | – | – |
| O=C(Cc1cccs1)N[C@@H]1C(=O)N2C(C(=O)O)=C(C=CSc3cc(=O)c4cc(F)c(F)c(F)c4s3)CS[C@H]12 [compound 7, 7-[2-(2-thienyl)acetamide]-3-[2-(6,7,8-trifluoro-4-oxo-4H-1-benzothiopyran-2-yl)thiovinyl]-3-cephem-4-carboxylic acid] | 0.025 (≈ 0.0419 µM) | 0.78 (≈ 1.31 µM) | – | – |
| O=C(Cc1cccs1)N[C@@H]1C(=O)N2C(C(=O)O)=C(C=CSc3cc(=O)c4occc4s3)CS[C@H]12 [compound 9, 7-[2-(2-thienyl)acetamide]-3-[2-(7-oxo-7H-thiopyrano[3,2-b]furan-5-yl)thiovinyl]-3-cephem-4-carboxylic acid] | 0.025 (≈ 0.0469 µM) | 3.13 (≈ 5.88 µM) | – | – |
| O=C(Cc1cccs1)N[C@@H]1C(=O)N2C(C(=O)O)=C(C=CSc3cc(=O)c4cccnc4s3)CS[C@H]12 [compound 30, 7-[2-(2-thienyl)acetamide]-3-[2-(4-oxo-4H-thiopyrano[2,3-b]pyridin-2-yl)thiovinyl]-3-cephem-4-carboxylic acid] | ≤ 0.006 | 6.25 (≈ 11.5 µM) | – | – |
| Nc1nc(/C(=N/O)C(=O)N[C@@H]2C(=O)N3C(C(=O)O)=C(C=CSc4cc(=O)c5sccc5s4)CS[C@H]23)cs1 [compound 23, 7-[2-hydroxyimino-2-(2-aminothiazol-4-yl)acetamide]-3-[2-(7-oxo-7H-thieno[3,2-b]thiopyran-5-yl)thiovinyl]-3-cephem-4-carboxylic acid] | 0.1 (≈ 0.168 µM) | 3.13 (≈ 5.27 µM) | – | – |
| O=C(Cc1cccs1)N[C@@H]1C(=O)N2C(C(=O)O)=C(C=CSc3cc(=O)c4ccc(O)cc4s3)CS[C@H]12 [compound 8, 7-[2-(2-thienyl)acetamide]-3-[2-(7-hydroxy-4-oxo-4H-1-benzothiopyran-2-yl)thiovinyl]-3-cephem-4-carboxylic acid] | 0.2 (≈ 0.358 µM) | 12.5 (≈ 22.4 µM) | – | – |
| O=C(Cc1cccs1)N[C@@H]1C(=O)N2C(C(=O)O)=C(C=CSc3sc4ccsc4c(=O)c3Br)CS[C@H]12 [compound 25, 7-[2-(2-thienyl)acetamide]-3-[2-(6-bromo-7-oxo-7H-thieno[3,2-b]thiopyran-5-yl)thiovinyl]-3-cephem-4-carboxylic acid] | 0.013 (≈ 0.0207 µM) | 0.78 (≈ 1.24 µM) | – | – |
| O=C(Cc1cccs1)N[C@@H]1C(=O)N2C(C(=O)O)=C(C=CSc3cc(=O)c4ccc(F)cc4s3)CS[C@H]12 [compound 2, 7-[2-(2-thienyl)acetamide]-3-[2-(7-fluoro-4-oxo-4H-1-benzothiopyran-2-yl)thiovinyl]-3-cephem-4-carboxylic acid] | 0.05 (≈ 0.0892 µM) | 0.78 (≈ 1.39 µM) | – | – |
| O=C(Cc1cccs1)N[C@@H]1C(=O)N2C(C(=O)O)=C(C=CSc3cc(=O)c4ccc(N5CCOCC5)cc4s3)CS[C@H]12 [compound 10, 7-[2-(2-thienyl)acetamide]-3-[2-(7-morpholino-4-oxo-4H-1-benzothiopyran-2-yl)thiovinyl]-3-cephem-4-carboxylic acid] | 0.05 (≈ 0.0796 µM) | 6.25 (≈ 9.96 µM) | – | – |
| COc1ccc2c(=O)cc(SC=CC3=C(C(=O)O)N4C(=O)[C@@H](NC(=O)Cc5cccs5)[C@H]4SC3)sc2c1 [compound 4, 7-[2-(2-thienyl)acetamide]-3-[2-(7-methoxy-4-oxo-4H-1-benzothiopyran-2-yl)thiovinyl]-3-cephem-4-carboxylic acid] | 0.1 (≈ 0.175 µM) | 1.56 (≈ 2.72 µM) | – | – |
| N=C(N)SCc1ccc2c(=O)cc(SC=CC3=C(C(=O)O)N4C(=O)[C@@H](NC(=O)Cc5cccs5)[C@H]4SC3)sc2c1 [compound 28, 7-[2-(2-thienyl)acetamide]-3-[2-(7-isothiuroniummethyl-4-oxo-4H-1-benzothiopyran-2-yl)thiovinyl]-3-cephem-4-carboxylic acid.formate] | 0.0254 | 6.25 | – | – |
| O=C(Cc1cccs1)N[C@@H]1C(=O)N2C(C(=O)O)=C(C=CSc3cc(=O)c4ccc(N5CCCCC5)cc4s3)CS[C@H]12 [compound 19, 7-[2-(2-thienyl)acetamide]-3-[2-(4-oxo-7-piperidino-4H-1-benzothiopyran-2-yl)thiovinyl]-3-cephem-4-carboxylic acid] | 0.1 (≈ 0.16 µM) | 3.13 (≈ 5 µM) | – | – |
| O=C(Cc1cccs1)N[C@@H]1C(=O)N2C(C(=O)O)=C(C=CSc3cc(=O)c4sccc4s3)CS[C@H]12 [compound 20, 7-[2-(2-thienyl)acetamide]-3-[2-(7-oxo-7H-thieno[3,2-b]thiopyran-5-yl)thiovinyl]-3-cephem-4-carboxylic acid] | 0.025 (≈ 0.0456 µM) | 1.56 (≈ 2.84 µM) | – | – |
| CO[C@@]1(NC(=O)CSC(F)F)C(=O)N2C(C(=O)O)=C(CSc3nnnn3CCO)CO[C@@H]21 [FMOX, flomoxef, reference compound] | 0.2 (≈ 0.403 µM) | > 100 | – | – |
| O=C(Cc1ccccc1)N[C@@H]1C(=O)N2C(C(=O)O)=C(C=CSc3cc(=O)c4ccccc4s3)CS[C@H]12 [compound 27, 7-(2-phenylacetamide)-3-[2-(4-oxo-4H-1-benzothiopyran-2-yl)thiovinyl]-3-cephem-4-carboxylic acid] | 0.025 (≈ 0.0466 µM) | 3.13 (≈ 5.83 µM) | – | – |
| O=C(Cc1cccs1)N[C@@H]1C(=O)N2C(C(=O)O)=C(C=CSc3cc(=O)c4ccc(N5CCNCC5)cc4s3)CS[C@H]12 [compound 22, 7-[2-(2-thienyl)acetamide]-3-[2-(4-oxo-7-(piperazin-1-yl)-4H-1-benzothiopyran-2-yl)thiovinyl]-3-cephem-4-carboxylic acid.hydrochloride] | ≤ 0.006 | 6.25 | – | – |
| Nc1nc(/C(=N/O)C(=O)N[C@@H]2C(=O)N3C(C(=O)O)=C(C=CSc4cc(=O)c5occc5s4)CS[C@H]23)cs1 [compound 17, 7-[2-hydroxyimino-2-(2-aminothiazol-4-yl)acetamide]-3-[2-(7-oxo-7H-thiopyrano[3,2-b]furan-5-yl)thiovinyl]-3-cephem-4-carboxylic acid] | 0.39 (≈ 0.675 µM) | 6.25 (≈ 10.8 µM) | – | – |
| O=C(Cc1cccs1)N[C@@H]1C(=O)N2C(C(=O)O)=C(C=CSc3cc(=O)c4c(C(F)(F)F)cccc4s3)CS[C@H]12 [compound 5, 7-[2-(2-thienyl)acetamide]-3-[2-(4-oxo-5-trifluoromethyl-4H-1-benzothiopyran-2-yl)thiovinyl]-3-cephem-4-carboxylic acid] | 0.05 (≈ 0.0819 µM) | 1.56 (≈ 2.55 µM) | – | – |
| O=C(Cc1cccs1)N[C@@H]1C(=O)N2C(C(=O)O)=C(C=CSc3cc(=O)c4nccnc4s3)CS[C@H]12 [compound 24, 7-[2-(2-thienyl)acetamide]-3-[2-(8-oxo-8H-thiopyrano[2,3-b]pyrazin-6-yl)thiovinyl]-3-cephem-4-carboxylic acid] | ≤ 0.006 | 3.13 (≈ 5.75 µM) | – | – |
| O=C(Cc1cccs1)N[C@@H]1C(=O)N2C(C(=O)O)=C(C=CSc3cc(=O)c4ccccc4s3)CS[C@H]12 [compound 1, 7-[2-(2-thienyl)acetamide]-3-[2-(4-oxo-4H-1-benzothiopyran-2-yl)thiovinyl]3-cephem-4-carboxylic acid] | 0.2 (≈ 0.369 µM) | 3.13 (≈ 5.77 µM) | – | – |
| NCc1c(SC=CC2=C(C(=O)O)N3C(=O)[C@@H](NC(=O)Cc4cccs4)[C@H]3SC2)sc2sc(Cl)cc2c1=O [compound 31, 7-[2-(2-thienyl)acetamide]-3-[2-(5-aminomethyl-2-chloro-4-oxo-4H-thieno[2,3-b]thiopyran-6-yl)thiovinyl]-3-cephem-4-carboxylic acid.trifluoroacetate] | 0.1 | 3.13 | – | – |
| O=C(Cc1cccs1)N[C@@H]1C(=O)N2C(C(=O)O)=C(C=CSc3cc(=O)c4cc(Cl)sc4s3)CS[C@H]12 [compound 21, 7-[2-(2-thienyl)acetamide]-3-[2-(2-chloro-4-oxo-4H-thieno[2,3-b]thiopyran-6-yl)thiovinyl]-3-cephem-4-carboxylic acid] | 0.025 (≈ 0.0429 µM) | 1.56 (≈ 2.68 µM) | – | – |
| Nc1nc(/C(=N/O)C(=O)N[C@@H]2C(=O)N3C(C(=O)O)=C(C=CSc4cc(=O)c5ccccc5s4)CS[C@H]23)cs1 [compound 11, sodium 7-[2-hydroxyimino-2-(2-aminothiazol-4-yl)acetamide]-3-[2-(4-oxo-4H-1-benzothiopyran-2-yl)thiovinyl]-3-cephem-4-carbonate] | 0.1 | 1.56 | – | – |
| O=C(Cc1cccs1)N[C@@H]1C(=O)N2C(C(=O)O)=C(C=CSc3cc(=O)c4scc([N+](=O)[O-])c4s3)CS[C@H]12 [compound 26, 7-[2-(2-thienyl)acetamide]-3-[2-(3-nitro-7-oxo-7H-thieno[3,2-b]thiopyran-5-yl)thiovinyl]-3-cephem-4-carboxylic acid] | 0.025 (≈ 0.0421 µM) | 1.56 (≈ 2.63 µM) | – | – |
| CN[C@H](CC(C)C)C(=O)N[C@H]1C(=O)N[C@@H](CC(N)=O)C(=O)N[C@H]2C(=O)N[C@H]3C(=O)N[C@H](C(=O)N[C@H](C(=O)O)c4cc(O)cc(O)c4-c4cc3ccc4O)[C@H](O)c3ccc(c(Cl)c3)Oc3cc2cc(c3O[C@@H]2O[C@H](CO)[C@@H](O)[C@H](O)[C@H]2O[C@H]2C[C@](C)(N)[C@H](O)[C@H](C)O2)Oc2ccc(cc2Cl)[C@H]1O [VCM, vancomycin, reference compound] | – | – | 0.78 (≈ 0.538 µM) | > 1000 |
